From article PMC9885069 (Scientific Reports, 2023)
Entries after “also recorded” stand apart in the source; their conditions may differ. Read-outs that look alike come from different tables or passages of the source.

Experiments:
01SD NPC cultures = assay: Cytotoxicity in uninfected NPC cultures, flow cytometry with fixable viability dye; conditions: uninfected 01SD NPCs; for cell viability of treated cultures: concentrations up to 50 μM
HSV-1 [1] = assay type: cell-based; conditions: 10 μM; for anti-HSV-1 activity in NPCs: 01SD and 9001 NPCs, day 3 p.i.; for reduction of the percentage of EGFP+-RFP+ cells compared to infected cells exposed to vehicle: MOI 0.1, day 3 p.i.
HSV-1 [2] = assay: microbe, parasite or virus in culture; assay type: cell-based; conditions: for inhibition of HSV-1 infection (EGFP and RFP reporter expression) in brain organoids: 9001 and 01SD fourteen-week old organoids, 6000 pfu/organoid, compounds 10 μM, ACV 50 μM, day 3 p.i.
[3] = Toxicity (cell number) in Calu3 cells in the SARS-CoV-2 assay; assay type: cell-based; conditions: human, Calu3 (ATCC, HTB-55) cells infected with SARS-CoV-2, 48 h post-infection
[4] = system: eIF2α phosphorylation on serine 51; assay: Immunocytochemistry of eIF2α phosphorylated on serine 51 in NPCs; assay type: cell-based, human; conditions: 9001 NPCs, 10 μM, 24 h, compared to untreated or 7-treated NPCs
Protocol: The RNA sequencing data is thus fully consistent with the hypothesis that 2b and 8 trigger a host antiviral response by activating an ISR.
Figure 8 Activation of the integrated stress response in 2b- and 8-treated NPCs. (A) NPCs derived from 9001 iPSC lines were exposed to compounds 7, 8, and 2b (10 μM). After 24 h, cells were fixed and stained with an antibody that detects eIF2α phosphorylated on Serine 51 (EIF2S1). Nuclei were counterstained with Hoechst 33342, and phosphorylation was assessed by fluorescence microscopy. (B) The corrected total cell fluorescence (CTCF) was obtained by measuring EIF2S1 fluorescence in cells where a fluorescent signal could be detected and normalizing for cellular area using equation CTCF = integrated density − (cellular area × mean fluorescence of background readings). Error bars are standard deviations. One-way analysis of variance (ANOVA) followed by Bonferroni post-hoc test was used to compare CTCF among the different conditions: ** (P = 0.0042); **** (P < 0.0001). (C,D) Up-regulation of the EIF2A kinase EIF2AK3 (C) and the activated transcription factor 4 (ATF4) (D) in 2b- and 8-treated NPCs. Fold-changes were calculated from RNA-seq data described in the methods section. (E) Proposed mechanism of action of 2b and 8.

[5] = system: host cell gene expression in 02SF NPCs; assay: RNA sequencing and Ingenuity Pathway Analysis of uninfected NPCs; assay type: cell-based, human; conditions: 10 μM
HSV-1 strain 17syn+ = assay: Mouse ocular model of HSV-1 infection, plaque assay of eye swabs; assay type: in vivo, ND4 Swiss mice
Protocol: The antiviral efficacy of compound 8 was further investigated and confirmed in an in vivo mouse model. ND4 Swiss mice were infected in the eyes with HSV-1 following light corneal scarification as described in the Materials and Methods section. At the same time that the virus was applied, one group of mice (n = 10) were treated a 50uM solution of compound 8 in DMSO and the other group (n = 10) were treated DMSO (vehicle). The eyes were treated with either vehicle or compound 8 each day for 4 days. The eyes were swabbed daily and infectious virus shedding was assessed by standard plaque assay.
Figure 9 In vivo antiviral activity. ND4 swiss mice were infected by corneal scarification with 1 × 10^5 pfu of HSV-1 strain 17syn+. Eyes were swabbed daily for 4 days and assayed for infectious virus by standard plaque assay.
ND4 Swiss mice, 4–6 weeks of age, (Envigo labs) were infected by the ocular route. Mice were anesthetized with isoflurane and the cornea were lightly scarified with a 23 ga. needle. 1 × 10^5 pfu (in 5 µl) of HSV-1 strain 17syn+ was applied to the corneal surface. At the same time, one group of mice (n = 10) were treated with 2 µL of a 50 µM solution of compound 8 in DMSO and the other group (n = 10) were treated with 2 µL DMSO (vehicle), applied to the eyes. The eyes were treated with either vehicle or compound 8 each day for 4 days. In order to assess the effect of compound 8 on the course of the infection, the eyes were swabbed daily with a Dacron swab, and the virus eluted in MEM medium. The swab eluate was assessed for the presence of infectious virus by standard plaque assay on rabbit skin cell monolayers.

[6] = system: SARS-CoV-2 (isolate USA WA1/2020); assay: NIH-NIAID in vitro SARS-CoV2 viral replication assay in Calu3 cells; assay type: cell-based; conditions: for therapeutic selectivity: CC50/IC50 in Calu3 cells
human brain organoids = assay: Organoid viability, calcein AM assay; assay type: cell-based; design: organoid viability: dose or concentration left out as unconfirmed
Protocol: Sixteen-week old brain organoids were infected as described above and exposed after 2 h to increasing 8 concentration ranging from 0.01 to 50 μM. At day 3 p.i. the IC50 of 8 was determined by measuring the intensity of the fluorescent reporter gene EGFP (whose expression is under the control of promoter of the immediate early HSV-1 gene ICP0) in the infected organoids was investigated. The EGFP expression was used as a proxy for viral gene expression during early stages of HSV-1 acute infection.
Figure 6 Antiviral efficacy and cytotoxicity of 8 against HSV-1 in human brain organoids. […] The IC50 was estimated by determining the corrected total cell fluorescence (CTCF) obtained by measuring EGFP fluorescence in organoids using ImageJ and normalizing for background using equation CTCF = integrated density − (area of the organoid × mean fluorescence of background readings). (B) Cytotoxicity of 8 without HSV-1 infection was assessed using calcein-AM. The fluorescence of calcein-AM in each organoid was measured and CTCF was determined as described above. […] 9001 and 01SD are printed as plot headings and were read as the test systems (organoid lines), not as substances. […]
Organoids viability was analyzed using calcein AM assay (BioLegend; catalogue # 425201), according to manufacturer’s instructions. […]

HSV-1 [7] = conditions: cited from earlier work
[8] = system: fibroblasts, hepatocytes, iPSC-derived neural progenitor cells; design: method as in PMID 30413769; conditions: cited from earlier work
[9] = cited from earlier work

Nc1nc2c(ncn2COCCO)c(=O)[nH]1 [ACV, acyclovir]
cell viability of treated cultures (01SD NPC cultures): comparable

COc1ccc2c(c1)[C@H]1C[C@H](O)[C@@H](O)[C@@H](O)[C@@H]1NC2=O [Compound 5, (2S,3R,4S,4aR,10bR)-2,3,4-Trihydroxy-9-methoxy-1,3,4,4a,5,10b-hexahydrophenanthridin-6(2H)-one]
anti-HSV-1 activity in NPCs (HSV-1 [1]): no anti-HSV-1 activity

O=C1N[C@H]2[C@H](O)[C@H](O)[C@@H](O)C[C@@H]2c2cc(O)ccc21 [Compound 6, (2S,3R,4S,4aR,10bR)-2,3,4,9-Tetrahydroxy-1,3,4,4a,5,10b-hexahydrophenanthridin-6(2H)-one]
inhibition of HSV-1 infection (EGFP and RFP reporter expression) in brain organoids (HSV-1 [2]): no anti-HSV-1 activity
anti-HSV-1 activity in NPCs (HSV-1 [1]): no anti-HSV-1 activity

O=C1N[C@H]2[C@H](O)[C@H](O)[C@@H](O)C[C@@H]2c2cccc(O)c21 [Compound 8, (2S,3R,4S,4aR,10bR)-2,3,4,7-Tetrahydroxy-1,3,4,4a,5,10b-hexahydrophenanthridin-6(2H)-one]
inhibition of HSV-1 infection (EGFP and RFP reporter expression) in brain organoids (HSV-1 [2]): no expression of EGFP and RFP reporter genes
IC50 (HSV-1 [2]; Human alphaherpesvirus 1, 72 h, read-out: IC50 of HSV-1 infection (EGFP intensity), 01SD organoids, sixteen-week old, day 3 p.i.): 209 nM
IC50 (HSV-1 [2]; Human alphaherpesvirus 1, 72 h, read-out: IC50 of HSV-1 infection (EGFP intensity), 9001 organoids, sixteen-week old, day 3 p.i.): 504 nM
IC50 (HSV-1 [2]; Human alphaherpesvirus 1, read-out: IC50 (EGFP CTCF), printed in Figure 6A, 01SD organoids): 209 nM
IC50 (HSV-1 [2]; Human alphaherpesvirus 1, read-out: IC50 (EGFP CTCF), printed in Figure 6A, 9001 organoids): 504 nM
CC50 at 48 h [3]: 1920 nM
eIF2α ~ P immunoreactivity [4]: increased
expression of activated transcription factor 4 (ATF4) (RNA-seq) [5]: Up-regulation
expression of the EIF2A kinase EIF2AK3 (RNA-seq) [5]: Up-regulation
yield of infectious virus in the tears (HSV-1 shedding) compared to vehicle treated eyes (HSV-1 strain 17syn+; mouse eyes, 50 µM solution in DMSO, daily for 4 days): dramatically reduced; also recorded: dramatically reduces HSV-1 shedding
reduction of peak titer of infectious virus (HSV-1 strain 17syn+; mouse eyes, 50 µM solution in DMSO, daily for 4 days, vs vehicle): reduced almost threefold
yield of infectious virus in the tears (HSV-1 shedding) compared to vehicle treated eyes (HSV-1 strain 17syn+; mouse eyes, 50 µM solution in DMSO, daily for 4 days, listed as 7-hydroxyl derivative): dramatically reduced HSV-1 shedding
delay of peak titer of infectious virus (HSV-1 strain 17syn+; vehicle peak at day 2 post-infection): delayed by one day
cell viability of treated cultures (01SD NPC cultures): comparable
reduction of the percentage of EGFP+-RFP+ cells compared to infected cells exposed to vehicle (HSV-1 [1]; 01SD NPCs): 6.76 fold
reduction of the percentage of EGFP+-RFP+ cells compared to infected cells exposed to vehicle (HSV-1 [1]; 9001 NPCs): 4.65 fold
therapeutic selectivity [6]: 20
organoid viability (human brain organoids): No significant reduction
organoid viability (calcein AM) (human brain organoids; without HSV-1 infection, concentrations up to 50 μM): No significant reduction; also recorded: No significant differences in cell viability

COc1cccc2c1C(=O)N[C@H]1[C@H](O)[C@H](O)[C@@H](O)C[C@H]21 [Compound 7, (2S,3R,4S,4aR,10bR)-2,3,4-Trihydroxy-7-methoxy-1,3,4,4a,5,10b-hexahydrophenanthridin-6(2H)-one]
inhibition of HSV-1 infection (EGFP and RFP reporter expression) in brain organoids (HSV-1 [2]): no anti-HSV-1 activity
anti-HSV-1 activity in NPCs (HSV-1 [1]): no anti-HSV-1 activity

O=C1N[C@H]2[C@H](O)[C@H](O)[C@@H](O)C[C@@H]2c2cc3c(cc21)OCO3 [Compound 2b, trans-dihydrolycoricidine, reference compound]
inhibition of HSV-1 infection (EGFP and RFP reporter expression) in brain organoids (HSV-1 [2]): no expression of EGFP and RFP reporter genes
inhibition of HSV-1 replication (HSV-1 [7]; compared with acyclovir (ACV)): more efficaciously than acyclovir
HSV-1 reactivation from latency (HSV-1 [7]; ex vivo mouse model): prevents HSV-1 reactivation from latency
potency against HSV-1 strains resistant to ACV (HSV-1 [7]; tk- strain and PAAv strain): moderate potency
CC50 at 48 h [3]: 3480 nM
eIF2α ~ P immunoreactivity [4]: increased
expression of activated transcription factor 4 (ATF4) (RNA-seq) [5]: Up-regulation
expression of the EIF2A kinase EIF2AK3 (RNA-seq) [5]: Up-regulation
toxicity in comparison to acyclovir ([8]; fibroblasts and hepatocytes): Slightly higher toxicity
toxicity in comparison to acyclovir ([8]; iPSC-derived neural progenitor cells (NPCs)): lower toxicity
concentration from which a reduction in cell viability was observed (01SD NPC cultures): ≥ 25 µM
reduction of the percentage of EGFP+-RFP+ cells compared to infected cells exposed to vehicle (HSV-1 [1]; 01SD NPCs): 8016 fold
reduction of the percentage of EGFP+-RFP+ cells compared to infected cells exposed to vehicle (HSV-1 [1]; 9001 NPCs): 424 fold
therapeutic selectivity [6]: 19

O=C1N[C@H]2[C@H](O)[C@H](O)[C@@H](O)CN2c2cc3c(cc21)OCO3 [Compound 4]
antiviral activity [9]: totally devoid of antiviral activity

CCC(CC)COC(=O)[C@H](C)N[P@](=O)(OC[C@H]1O[C@@](C#N)(c2ccc3c(N)ncnn23)[C@H](O)[C@@H]1O)Oc1ccccc1 [remdesivir]
IC50 ([6]; Severe acute respiratory syndrome coronavirus 2, Calu-3, Calu3 cells, MOI=0.5, 2 h pretreatment, 48 h post-infection, read-out: IC50 (infection, dsRNA+ cells/total cell number)): 60 nM
